The record followed here is patent publication US5821231A, “CS-1 peptidomimetics, compositions and methods of using same” (Cytel Corporation, priority 1995, dated 1998).

The target of this assay is VLA-4 (Homo sapiens, UniProt P05556+P13612). As to the kind of experiment: In vitro binding assay: 51Cr-labeled Jurkat cells to solid phase-bound CS-1 compound (SEQ ID NO:1). Further details: inflammatory cells that contain the VLA-4 receptor [Jurkat cells; host or cells: Jurkat cells (human T lymphoblastic line). Format: cell-based. The protocol:
Binding inhibition is measured here as a concentration of compound that inhibits one-half the binding between a standard number of Jurkat cells and a standard amount of CS-1 compound bound to the surface of a microtiter plate well. Those concentrations are conveniently expressed as IC50 values, smaller numbers indicating a lower concentration required to inhibit 50 percent binding and therefore greater potency. Further specifics of this assay are provided hereinafter.
Jurkat cells (ATCC TIB 152), a human T lymphoblastic line, labeled with ^51 chromium were used to assay in vitro binding inhibition provided by various compounds discussed herein.
The plates were prepared as follows: The 25-mer CS-1 compound (SEQ ID NO:1) dissolved at 0.5-1 μg/ml in a buffer of 0.1M NaHCO3 at pH 9.5 that also contained 10 μg/ml of bovine serum albumin (BSA) or a conjugate of the CS-1 compound linked to ovalbumin (CS-1-OVA) dissolved at 1-2.5 μg/ml in the same buffer was used as the substrate. Each well of the microtiter plates was coated with 50 μl of substrate or buffer alone for controls. The wells were permitted to dry out completely and were then rinsed twice with PBS at pH 7.4. Non-specific binding sites of each well were then blocked using 200 μl per well of RPMI/1 percent BSA for two hours at room temperature.
Jurkat cells (3-5×10^6 cells) were placed into a 15 ml Falcon™ round-bottom tube with a cap. The tube was centrifuged, and the extra medium was then removed.
Two hundred microliters of a ^51 Cr labeling solution were added to the centrifuged cells and maintained in contact with the cells for 90-120 minutes in a warm room. […] Longer contact times provide a greater amount of labeling but lower cell viability.
The labeled cells are washed with (i) complete medium, (ii) 1 mM EDTA/PBS and then (iii) RPM1/1 percent BSA free of serum components. The cells are centrifuged after each washing. The cells are finally resuspended in serum-free RPMI/1 percent BSA at a concentration of 1×10^6 viable cells/ml, which provides a concentration that is diluted by one-half in the assay.
Inhibitor compounds are prepared as stock solutions at 20 mg/ml in DMSO in 1.5 ml cryogenic screwcap vials, and were stored at -70° C. Using Flow™ round-bottom or V-bottom microtiter plates, the inhibitor compounds were prepared at twice the assay concentration in RPMI/1 percent BSA at 60 μl/well.
Four initial dilutions were typically used.
The ^51 Cr-labeled cells ([…] at 60 μl/well) were then admixed with the diluted compound solutions. The admixtures were maintained at room temperature (about 22° C.) for 30 minutes.
One hundred microliters of each inhibitor compound/cell admixture were transferred to the substrate-coated wells. This was done in triplicate for each dilution. The resulting plates were incubated for 30 minutes at 37° C. and then washed gently three times with RPMI/1 percent BSA at 200 μl/well. Binding was observed microscopically, particularly after the second wash.
The bound cells were then lysed by the addition of a 0.5 percent solution of sodium dodecylsulfate in water at 100 μl/well. The resulting solutions were then processed for counting and calculation of IC50 values following usual procedures.
The data of Table 1 are normalized to the binding of SEQ ID NO: 3. […] Multiple assays for the same compound were averaged.

Square brackets hold non-standard residues; d marks the D form. Peptide text beside a SMILES is read from it. * marks the point of attachment. PhAc = O=C(Cc1ccccc1)*

VLA-4, sequence (P13612 34-1032): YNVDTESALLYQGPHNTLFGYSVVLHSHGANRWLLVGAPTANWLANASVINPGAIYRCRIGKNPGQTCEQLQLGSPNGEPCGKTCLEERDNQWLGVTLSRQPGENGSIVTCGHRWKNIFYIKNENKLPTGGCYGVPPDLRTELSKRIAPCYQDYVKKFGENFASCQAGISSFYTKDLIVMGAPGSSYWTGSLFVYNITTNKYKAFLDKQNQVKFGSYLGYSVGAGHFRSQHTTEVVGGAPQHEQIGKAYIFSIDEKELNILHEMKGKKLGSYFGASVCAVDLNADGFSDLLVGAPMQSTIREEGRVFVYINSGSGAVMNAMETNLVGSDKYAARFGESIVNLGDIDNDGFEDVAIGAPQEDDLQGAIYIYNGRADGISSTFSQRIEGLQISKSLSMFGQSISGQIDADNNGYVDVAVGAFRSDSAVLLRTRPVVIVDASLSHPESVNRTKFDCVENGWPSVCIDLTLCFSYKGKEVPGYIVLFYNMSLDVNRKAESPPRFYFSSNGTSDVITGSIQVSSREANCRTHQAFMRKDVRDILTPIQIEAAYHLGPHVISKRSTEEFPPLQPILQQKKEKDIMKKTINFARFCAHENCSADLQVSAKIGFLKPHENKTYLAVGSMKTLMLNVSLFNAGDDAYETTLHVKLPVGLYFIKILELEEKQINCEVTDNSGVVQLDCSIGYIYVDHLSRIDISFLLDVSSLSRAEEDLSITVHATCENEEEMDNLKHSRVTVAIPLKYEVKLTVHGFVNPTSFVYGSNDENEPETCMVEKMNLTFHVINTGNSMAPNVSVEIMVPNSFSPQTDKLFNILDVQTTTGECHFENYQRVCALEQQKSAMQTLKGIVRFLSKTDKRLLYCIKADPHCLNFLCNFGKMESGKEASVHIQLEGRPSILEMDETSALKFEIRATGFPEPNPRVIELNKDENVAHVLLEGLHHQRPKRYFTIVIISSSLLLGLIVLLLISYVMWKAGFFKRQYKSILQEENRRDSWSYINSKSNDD
VLA-4, sequence (P05556 21-798): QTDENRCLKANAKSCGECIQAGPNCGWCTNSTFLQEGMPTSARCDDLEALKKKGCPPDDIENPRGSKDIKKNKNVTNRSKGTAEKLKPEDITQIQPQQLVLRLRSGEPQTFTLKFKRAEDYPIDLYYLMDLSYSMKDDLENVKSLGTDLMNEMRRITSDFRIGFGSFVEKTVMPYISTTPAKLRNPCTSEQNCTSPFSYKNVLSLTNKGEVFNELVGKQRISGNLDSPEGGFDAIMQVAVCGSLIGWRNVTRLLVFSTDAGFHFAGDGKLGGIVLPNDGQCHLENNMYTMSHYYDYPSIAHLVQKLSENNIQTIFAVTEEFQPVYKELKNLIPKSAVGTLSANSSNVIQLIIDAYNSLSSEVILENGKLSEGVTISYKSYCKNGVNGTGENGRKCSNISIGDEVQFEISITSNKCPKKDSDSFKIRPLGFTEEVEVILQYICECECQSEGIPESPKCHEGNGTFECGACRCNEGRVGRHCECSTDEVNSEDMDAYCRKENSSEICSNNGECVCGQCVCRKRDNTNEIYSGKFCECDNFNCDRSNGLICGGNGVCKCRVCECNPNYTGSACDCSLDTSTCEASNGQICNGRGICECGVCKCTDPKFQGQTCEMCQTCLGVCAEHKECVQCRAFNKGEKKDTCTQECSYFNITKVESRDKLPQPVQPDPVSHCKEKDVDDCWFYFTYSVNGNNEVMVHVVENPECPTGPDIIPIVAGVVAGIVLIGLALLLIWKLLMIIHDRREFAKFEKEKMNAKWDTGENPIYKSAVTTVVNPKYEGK

For the compound `CC(C)C[C@H](NC(=O)[C@H](CC(=O)O)NC(=O)Cc1ccccc1)C(=O)N[C@@H](Cc1ccccc1)C(=O)N1CCC[C@@H]1C(N)=O` [N-phenylacetyl-Asp-Leu-Phe-D-Pro-NH2, reference compound] (PhAc-DLF[dP]-NH2), the “Relative Potency” value (binding inhibition potency (IC50) relative to standard compound of SEQ ID NO:3 = 1, about one-tenth or less assigned zero) is 0. For the same compound, the “VLA-4 binding inhibition (in words)” value (compared with standard 10-mer of SEQ ID NO:3 or other peptides) was “no inhibition of VLA-4”.
